# According to paper PMC5758648, “Anti-glioma Natural Products Downregulating Tumor Glycolytic Enzymes from Marine Actinomycete Streptomyces sp. ZZ406” (Scientific Reports, 2018):
# Entries after “also recorded” stand apart in the source; their conditions may differ. Where a SMILES comes first, the peptide text is derived from it.
# Key:
# [1] = Stability in human liver microsomes; format: in vitro ADME; details: 37 °C; for Percentage compared to the zero time point: human liver microsomes; for Percentage compared to the zero time point: tested at 12.5 µg/mL
# Description: Therefore, it is interesting to understand the stability of compound 1 in human liver microsomes. Human liver microsomes were incubated with compound 1 at 37 °C in a water bath and the concentration of 1 at designed time points of 0, 15, 30, 60, 90, 120, 180, 240, and 360 min was determined by HPLC analysis. The results (Table 2 and Fig. 6) indicated the concentration of 1 had no change after the incubation of 30 min. The percentage of 1 was 98.4% (30 min), 70.2% (60 min), 65.3% (90 min), 54.8% (120 min), 35.5% (180 min), 28.2 (240 min), and 19.4% (360 min) when compared to 100.0% (0 min). The data indicated 1 was very stable in human liver microsomes in the first 30 min incubation with concentration gradually decreasing after the incubation of 30 min.
# Compound 1 was dissolved in 100 mM NaPO4 solution (pH 7.4) to make a sample solution with a final concentration of 125 μg/mL. Human liver microsomes were diluted by 100 mM NaPO4 solution (pH 7.4) to make liver microsomal solution with a concentration of 1.25 mg/mL. A mixture of the sample solution (90 μL) and the liver microsomal solution (720 μL) was mixed well and then pre-incubated at 37 °C for 7 min. The pre-incubated mixture was initiated by adding 90 μL 10 mM NADPH solution, mixed well, and then incubated at 37 °C in a water bath. At each designed time point of 0, 15, 30, 60, 90, 120, 180, 240 and 360 min, aliquot 80 μL of the incubated mixture was pipette by micropipet and then quenched by the addition of 320 μL methanol. The reaction mixture was centrifuged at 12000 rpm for 10 min at 5 °C to give the supernatant, which was submitted to HPLC analysis.
# [2] = test system: PKM2; experiment: Western blot, PKM2 expression in U87MG cells; format: cell-based, human; details: 48 h, 1 at 30 μM, 2 at 60 μM, western blot vs blank control
# Description: (§1) The active compounds 1 and 2 were further assayed for their effects on the expression levels of important tumor glycolytic enzymes (regulators) of HK2, PFKFB3, PKM2, and LDH5. […] Therefore, the effects of 1 and 2 on the expressions of these regulators in U87MG cells were evaluated. 2-Deoxyglucose (2-DG, a hexokinase inhibitor)[8], was used as a positive control. The U87MG cells were treated by 1 (30.0 μM), 2 (60.0 μM), or 2-DG (6.0 mM) for 48 h. Protein prepared from the compound-treated U87MG cells was subjected to western blot analysis. […] The full-length blots of Fig. 5 were provided as supplementary information (Fig. S61).
# (§2) Figure 5 The expression levels of HK2, PFKFB3, PKM2, and LDH5 in glioma U87MG cells. U87-MG cells were treated with compounds 1 (30 μM), 2 (60 μM), or 2-DG (6.0 mM) for 48 h. Protein extracted from the compound-treated cells was subjected to western blot analysis.
# (§3) Western blot analysis was used to detect the expression levels of tumor glycolytic regulators HK2, PFKFB3, PKM2, and LDH5. The detailed procedure, including protein sample preparation, determination of protein concentration, and western blot analysis, was described in the previous publication.
# [3] = test system: LDH5; experiment: Western blot, LDH5 expression in U87MG cells; format: cell-based, human; details: 48 h, 1 at 30 μM, 2 at 60 μM, western blot vs blank control
# Description: as §1, §2, §3
# [4] = test system: human glioma U87MG, U251 and SHG44 cells; experiment: SRB antiproliferative assay, results summarised over the glioma cell lines; format: cell-based; details: for IC50: Homo sapiens, Glioma cell, range over U87MG, read-out: IC50 values against different glioma cells (range); for Activity in inhibiting the proliferation of glioma cells: U87MG
# Description: (§4) Doxorubicin (DOX, a chemotherapeutic drug) was used as a positive control.
# (§5) Sulforhodamine B (SRB) assay as described in previous studies[19],[20] was used to determine the activity of tested compounds inhibiting the proliferation of glioma U87MG, U251, SHG44 cells, and normal human astrocytes (HA). Doxorubicin (DOX) was used as a positive control (CON).
# [5] = test system: HK2; experiment: Western blot, HK2 expression in U87MG cells; format: cell-based, human; details: 48 h, 1 at 30 μM, 2 at 60 μM, western blot vs blank control
# Description: as §1, §2, §3
# [6] = SRB cytotoxicity assay, normal human astrocytes; format: cell-based; details: normal human astrocytes (HA), mean ± s.d., n = 3
# Description: as §4, §5
# [7] = test system: human glioma SHG44 cells; experiment: SRB antiproliferative assay, SHG44 glioma cells; format: cell-based; details: for Selectivity index (CC50/IC50), SHG44: CC50 in HA / IC50 in SHG44; for IC50: Homo sapiens, SHG-44, SRB assay, mean ± s.d., n = 3
# Description: as §4, §5
# [8] = test system: PFKFB3; experiment: Western blot, PFKFB3 expression in U87MG cells; format: cell-based, human; details: 48 h, 1 at 30 μM, 2 at 60 μM, western blot vs blank control
# Description: as §1, §2, §3
# [9] = test system: human glioma U87MG cells; experiment: SRB antiproliferative assay, U87MG glioma cells; format: cell-based; details: for Selectivity index (CC50/IC50), U87MG: CC50 in HA / IC50 in U87MG; for IC50: Homo sapiens, U-87 MG, SRB assay, mean ± s.d., n = 3
# Description: as §4
# The procedure of the preparation of crude extract for bioactive assay was described in the previous publication. The crude extract was made to a concentration of 1.0 mg/mL. Sulforhodamine B (SRB) assay was used to evaluate the activity of the crude extract against the proliferation of glioma U87MG cells.
# as §5
# [10] = test system: human glioma U251 cells; experiment: SRB antiproliferative assay, U251 glioma cells; format: cell-based; details: for Selectivity index (CC50/IC50), U251: CC50 in HA / IC50 in U251; for IC50: Homo sapiens, U-251, SRB assay, mean ± s.d., n = 3
# Description: as §4, §5
# [11] = test system: human glioma U87MG, U251 and SHG44 cells; set-up: method as in PMID 28049552; details: cited from earlier work
# [12] = test system: glioma; set-up: method as in PMID 20128807, PMID 15747063, PMID 29056497; details: cited from earlier work
molecule,measurement,setting,value
"O=C(O)c1cc(CO)c2c(c1)C(=O)c1cccc(O)c1C2=O [Compound 1, 1-hydroxymethyl-8-hydroxy-anthraquinone-3-carboxylic acid]",Stability in human liver microsomes,[1],good stability
same,Concentration in human liver microsomes,[1]; 0 min,12400 ng/mL
same,Concentration in human liver microsomes,[1]; 15 min,12000 ng/mL
same,Concentration in human liver microsomes,[1]; 30 min,12200 ng/mL
same,Concentration in human liver microsomes,[1]; 60 min,8700 ng/mL
same,Concentration in human liver microsomes,[1]; 90 min,8100 ng/mL
same,Concentration in human liver microsomes,[1]; 120 min,6800 ng/mL
same,Concentration in human liver microsomes,[1]; 180 min,4400 ng/mL
same,Concentration in human liver microsomes,[1]; 240 min,3500 ng/mL
same,Concentration in human liver microsomes,[1]; 360 min,2400 ng/mL
same,"Stability in human liver microsomes, first 30 min",[1]; first 30 min incubation,very stable
same,Percentage compared to the zero time point,[1]; 0 min,100.0%
same,Percentage compared to the zero time point,[1]; 15 min,96.8%
same,Percentage compared to the zero time point,[1]; 30 min,98.4%
same,Percentage compared to the zero time point,[1]; 60 min,70.2%
same,Percentage compared to the zero time point,[1]; 90 min,65.3%
same,Percentage compared to the zero time point,[1]; 120 min,54.8%
same,Percentage compared to the zero time point,[1]; 180 min,35.5%
same,Percentage compared to the zero time point,[1]; 240 min,28.2%
same,Percentage compared to the zero time point,[1]; 360 min,19.4%
same,Expression level of PKM2,[2],clearly reduced; also recorded: remarkably reduced
same,Expression level of LDH5,[3],clearly reduced; also recorded: remarkably reduced
same,IC50,[4],4.7 to 8.1 µM
same,Expression level of HK2,[5],clearly reduced; also recorded: remarkably reduced
same,CC50,[6],> 100 µM
same,"Selectivity index (CC50/IC50), SHG44",[7],> 12.3
same,IC50,[7],8.1 ± 0.4 µM
same,Expression level of PFKFB3,[8],clearly reduced; also recorded: remarkably reduced
same,"Selectivity index (CC50/IC50), U87MG",[9],> 21.3
same,IC50,[9],4.7 ± 0.2 µM
same,"Selectivity index (CC50/IC50), U251",[10],> 17.5
same,IC50,[10],5.7 ± 0.3 µM
"Cc1cc(=O)c2c(CC(=O)C[C@@H](O)CC(=O)O)cccc2o1 [Compound 2, 5-(2′-oxo-4′R-hydroxy-hexanoic acid)-2-methyl-chromone]",Expression level of PKM2,[2],clearly reduced; also recorded: remarkably reduced
same,Expression level of LDH5,[3],clearly reduced; also recorded: remarkably reduced
same,IC50,[4],21.6 to 25.8 µM
same,Expression level of HK2,[5],clearly reduced; also recorded: remarkably reduced
same,CC50,[6],> 100 µM
same,"Selectivity index (CC50/IC50), SHG44",[7],> 3.8
same,IC50,[7],25.8 ± 3.1 µM
same,Expression level of PFKFB3,[8],clearly reduced; also recorded: remarkably reduced
same,"Selectivity index (CC50/IC50), U87MG",[9],> 3.8
same,IC50,[9],25.7 ± 2.4 µM
same,"Selectivity index (CC50/IC50), U251",[10],> 4.6
same,IC50,[10],21.6 ± 1.7 µM
"CC(=O)N[C@@H](CC(C)C)C(=O)N[C@@H](CO)C(=O)N[C@@H](C)C(=O)O [Compound 3, N-acetyl-L-leucine-L-serine-L-alanine] (Ac-Leu-Ser-Ala-OH)",Activity in inhibiting the proliferation of glioma cells,[4],inactive
"CC(=O)N1CC(C(=O)O)CN1C(=O)C(C)C (stereo not drawn) [Compound 4, 1-acetyl-2-isobutyrylpyrazolidine-4-carboxylic acid]",Activity in inhibiting the proliferation of glioma cells,[4],inactive
"Cc1cc(O)c2c(c1)C(=O)c1cccc(O)c1C2=O [Compound 5, chrysophanol]",IC50,[4],0.5 to 3 µM
same,IC50,[7],3 ± 0.2 µM
same,IC50,[9],0.5 ± 0.1 µM
same,IC50,[10],1.2 ± 0.1 µM
"Cc1c(C(=O)O)c(O)cc2c1C(=O)c1c(O)cccc1C2=O [Compound 6, 3,8-dihydroxy-1-methyl-anthraquinone-2-carboxylic acid]",IC50,[4],10.4 to 36.3 µM
same,IC50,[7],36.3 ± 0.2 µM
same,IC50,[9],10.4 ± 0.5 µM
same,IC50,[10],13 ± 0.6 µM
"CC(C)[C@@H]1NC(=O)[C@H](C)OC(=O)[C@@H](C(C)C)NC(=O)[C@@H](C(C)C)OC(=O)[C@H](C(C)C)NC(=O)[C@H](C)OC(=O)[C@@H](C(C)C)NC(=O)[C@@H](C(C)C)OC(=O)[C@H](C(C)C)NC(=O)[C@H](C)OC(=O)[C@@H](C(C)C)NC(=O)[C@@H](C(C)C)OC1=O [Compound 11, valinomycin]",Activity in inhibiting the proliferation of different glioma cells,[11],showed activity
"COc1cccc2c1C(=O)c1c(O)c3c(c(O)c1C2=O)C[C@@](O)(C(=O)CO)C[C@@H]3O[C@H]1C[C@H](N)[C@H](O)[C@H](C)O1 [DOX, Doxorubicin, reference compound]",IC50,[4],1.9 to 9.6 µM
same,CC50,[6],8.7 ± 1.2 µM
same,"Selectivity index (CC50/IC50), SHG44",[7],3.5
same,IC50,[7],2.5 ± 1.1 µM
same,"Selectivity index (CC50/IC50), U87MG",[9],4.6
same,IC50,[9],1.9 ± 0.4 µM
same,"Selectivity index (CC50/IC50), U251",[10],0.9
same,IC50,[10],9.6 ± 1.3 µM
O=C1c2cccc(O)c2C(=O)c2c(O)cc(CO)cc21 [aloe emodin],Activity against glioma,[12],reported to have activity against glioma
O=C(O)c1cc(O)c2c(c1)C(=O)c1cccc(O)c1C2=O [rhein],Activity against glioma,[12],reported to have activity against glioma
SZ-685C,Activity against glioma,[12],reported to have activity against glioma
